Activity calls are given as the source filed them. The calls are words filed in the database; no cut-off is given here.
How the values were obtained:
[1] = target: T1, P2X purinoceptor 3 (Rattus norvegicus) (UniProt P49654); assay: Antagonist activity against rat P2X3 receptor expressed in CHOK1 cells assessed as inhibition of alpha,beta-meATP-induced calcium response incubated for 20 mins by Fluo-3AM dye based FLIPR assay; assay type: functional, cell-based; conditions: CHO-K1
T1 sequence (whole entry): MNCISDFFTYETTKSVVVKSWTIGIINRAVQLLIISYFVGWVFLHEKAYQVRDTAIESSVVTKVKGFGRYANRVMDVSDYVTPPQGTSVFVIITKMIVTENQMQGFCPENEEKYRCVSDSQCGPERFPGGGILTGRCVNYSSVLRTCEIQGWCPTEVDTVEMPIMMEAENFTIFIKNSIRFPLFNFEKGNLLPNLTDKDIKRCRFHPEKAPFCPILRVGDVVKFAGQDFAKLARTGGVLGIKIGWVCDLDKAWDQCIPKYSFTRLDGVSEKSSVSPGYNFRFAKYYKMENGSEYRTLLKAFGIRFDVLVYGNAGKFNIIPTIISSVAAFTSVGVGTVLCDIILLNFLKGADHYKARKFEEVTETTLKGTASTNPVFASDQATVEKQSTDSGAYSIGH

[2] = target: P2X2/P2X3 heterotrimeric receptor (Homo sapiens) (UniProt Q9UBL9+P56373); assay: Antagonist activity against human P2X2/3 receptor expressed in CHOK1 cells assessed as inhibition of alpha,beta-meATP-induced calcium response incubated for 20 mins by Fluo-3AM dye based FLIPR assay; assay type: functional, cell-based; conditions: CHO-K1

Row | SMILES | inhibition [1] | inhibition [2]
1 | COc1cc(C(C)C)c(Oc2cnc(N)nc2N)cc1C#CC1CC1 | Active | Active
2 | C#Cc1cc(Oc2cnc(N)nc2N)c(C(C)C)cc1F | Active | Active
3 | CC#Cc1cc(Oc2cnc(N)nc2N)c(C(C)C)cc1OC | Active | Active
4 | C#Cc1cc(Oc2cnc(NCCN3CCOCC3)nc2N)c(C(C)C)cc1OC | Active | Active
5 | C#Cc1cc(Oc2cnc(N)nc2N)c(C(C)C)cc1OCc1cccc(F)c1 | Active | Active
6 | C#Cc1cc(Oc2cnc(N)nc2N)c(C#C)cc1OC | Active | Active
7 | C#Cc1cc(Oc2cnc(NC3CCOCC3)nc2N)c(C(C)C)cc1OC | Active | Active
8 | C#Cc1cc(Oc2cnc(N)nc2N)c(CC)cc1OC | Active | Active
9 | C#Cc1cc(Oc2cnc(NC(C)CO)nc2N)c(C(C)C)cc1OC (configuration not stated) | Active | Active
10 | COc1cc(C(C)C)c(Oc2cnc(N)nc2N)cc1C#CCCC#N | Active | Active
11 | COc1cc(C(C)C)c(Oc2cnc(N)nc2N)cc1C#CCCO | Active | Active
12 | CCCC#Cc1cc(Oc2cnc(N)nc2N)c(C(C)C)cc1OC | Active | Active
13 | COCC#Cc1cc(Oc2cnc(N)nc2N)c(C(C)C)cc1OC | Active | Active
14 | COc1cc(C(C)C)c(Oc2cnc(N)nc2N)cc1C#Cc1ccccn1 | Active | Active
15 | C#Cc1cc(Oc2cnc(NCCO)nc2N)c(C(C)C)cc1OC | Active | Active
16 | C#Cc1ccc(C#C)c(Oc2cnc(N)nc2N)c1 | Active | Active
17 | COc1cc(C(C)C)c(Oc2cnc(N)nc2N)cc1C#CCCCO | Active | Active
18 | C#Cc1cc(OC)c(C(C)C)c(Oc2cnc(N)nc2N)c1 | Active | Active
19 | COc1cc(I)cc(Oc2cnc(N)nc2N)c1C(C)C | Active | Active
20 | C#Cc1cc(Oc2cnc(NCCN3CCCCC3)nc2N)c(C(C)C)cc1OC | Active | Active
21 | C#Cc1cc(Oc2cnc(NCCN(C)C)nc2N)c(C(C)C)cc1OC | Active | Active

Row | SMILES | inhibition [1] | inhibition [2]
22 | C#Cc1cc(OC)c(I)cc1Oc1cnc(N)nc1N | Active | Active
23 | C#Cc1ccc(I)c(Oc2cnc(N)nc2N)c1 | Active | Active
24 | COc1cc(C(C)C)c(Oc2cnc(N)nc2N)cc1C#CCO | Active | Active
25 | C#Cc1ccc(C(C)C)c(Oc2cnc(N)nc2N)c1 | Active | Active
26 | COc1cc(C(C)C)c(Oc2cnc(N)nc2N)cc1C#Cc1ccsc1 | Active | Active
27 | C#Cc1cc(Oc2cnc(N)nc2N)c(C(C)C)cc1OCCO | Active | Active
28 | COc1cc(C(C)C)c(Oc2cnc(N)nc2N)cc1C#Cc1cncn1C | Active | Active
29 | COc1cc(C(C)C)c(Oc2cnc(N)nc2N)cc1C#Cc1ccncc1 | Active | Active
30 | COc1cc(C(C)C)c(Oc2cnc(N)nc2N)cc1C#Cc1cccnc1 | Active | Active
31 | CNCC#Cc1cc(Oc2cnc(N)nc2N)c(C(C)C)cc1OC | Active | Active
32 | C#Cc1cc(Oc2cnc(NC(CO)CO)nc2N)c(C(C)C)cc1OC | Active | Active
33 | C#Cc1cc(Oc2cnc(NCC(C)O)nc2N)c(C(C)C)cc1OC (configuration not stated) | Active | Active
34 | C#Cc1cc(Oc2cnc(NC3CCN(S(C)(=O)=O)CC3)nc2N)c(C(C)C)cc1OC | Active | Active
35 | C#Cc1cc(Oc2cnc(N)nc2N)c(C(C)C)cc1OC | Active | Active
36 | C#Cc1cc(Oc2cnc(N)nc2N)c(C(C)C)cc1Cl | Active | Active
37 | C#Cc1cc(Oc2cnc(NCCCO)nc2N)c(C(C)C)cc1OC | Active | Active
38 | C#Cc1cc(Cc2cnc(N)nc2N)c(C(C)C)cc1OC | Active | Active
39 | COc1cc(C(C)C)c(Oc2cnc(N)nc2N)cc1C#Cc1ccccc1 | Active | Active
40 | CC#Cc1cc(Oc2cnc(N)nc2N)c(C(C)C)cc1F | Active | Active
41 | COc1cc(C(C)C)c(Oc2cnc(N)nc2N)cc1C#C[Si](C)(C)C | Active | Active
